Tests used:
androgen receptor = molecular target: T1, androgen receptor (Homo sapiens, UniProt P10275); assay: Assay for binding affinity to androgen receptor ([3H]methyltrienolone radioligand competition, cell cytosol); details: binding to the androgen receptor, 1 nM [3H]methyltrienolone, 24 hr at 4° C.
T1 construct: host or cells: unnamed cells, cytosolic fraction
T1 sequence (P10275 1-920): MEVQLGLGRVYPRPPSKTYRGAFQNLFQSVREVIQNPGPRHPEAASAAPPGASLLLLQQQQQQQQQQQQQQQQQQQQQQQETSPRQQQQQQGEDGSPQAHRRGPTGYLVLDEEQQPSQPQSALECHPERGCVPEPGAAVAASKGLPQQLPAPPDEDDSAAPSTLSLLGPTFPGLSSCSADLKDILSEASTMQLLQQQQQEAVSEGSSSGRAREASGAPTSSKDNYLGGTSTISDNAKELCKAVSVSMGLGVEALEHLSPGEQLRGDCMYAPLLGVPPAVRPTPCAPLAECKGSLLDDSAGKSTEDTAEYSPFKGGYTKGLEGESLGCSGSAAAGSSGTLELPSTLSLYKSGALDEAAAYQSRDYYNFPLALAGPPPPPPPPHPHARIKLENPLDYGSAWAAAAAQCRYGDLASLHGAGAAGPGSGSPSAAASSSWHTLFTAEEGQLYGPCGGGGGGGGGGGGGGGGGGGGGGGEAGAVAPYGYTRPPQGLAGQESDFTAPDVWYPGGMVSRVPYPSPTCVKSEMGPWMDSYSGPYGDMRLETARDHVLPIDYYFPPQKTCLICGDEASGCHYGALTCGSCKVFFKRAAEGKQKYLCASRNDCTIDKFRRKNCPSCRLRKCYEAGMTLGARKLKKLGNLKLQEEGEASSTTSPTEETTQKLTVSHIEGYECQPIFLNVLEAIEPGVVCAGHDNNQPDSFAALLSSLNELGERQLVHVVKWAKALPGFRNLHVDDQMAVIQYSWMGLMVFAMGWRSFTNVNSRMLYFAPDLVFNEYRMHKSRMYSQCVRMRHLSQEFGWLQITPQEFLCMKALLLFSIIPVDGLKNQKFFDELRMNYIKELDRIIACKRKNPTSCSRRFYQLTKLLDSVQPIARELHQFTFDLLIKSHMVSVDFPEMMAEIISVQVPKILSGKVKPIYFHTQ
Protocol: Fractions of cell cytosol ([…]) were incubated for 24 hr at 4° C. with 1 nM [^3H]methyltrienolone in the absence or presence of the test compound in a buffer containing 25 mM Hepes-Tris (pH 7.4), 1 mM EDTA, 10 mM Na2MoO4, 2 mM DTT, 5 μM triamcinolone acetonide, and 10% glycerol. Nonspecific binding was determined in the presence of […] testosterone. Following incubation, the samples were filtered rapidly under vacuum through glass fiber filters (GF/B, Packard) presoaked with 0.3% PEI and rinsed several times with ice-cold 50 mM Tris-HCl using a 96-sample cell harvester (Unifilter, Packard). The filters were dried then counted for radioactivity in a scintillation counter (Topcount, Packard) using a scintillation cocktail (Microscint 0, Packard). The results are expressed as a percent inhibition of the control radioligand specific binding. The standard reference compound is testosterone, which is tested in each experiment at several concentrations to obtain a competition curve from which its IC50 is calculated.

[1] = test system: T-Rex 293 cell line SC cells having increased expression of progesterone receptor isoform B protein; assay: Cellular growth inhibition assay, T-Rex 293 SC cells exposed to doxycycline (increased progesterone receptor isoform B expression), CellTiter-Glo; type: cell-based; details: T-Rex 293 SC cells with 10 ng/mL doxycycline (increased PR isoform B), 72 hours

| SMILES | Ki (androgen receptor) [nM] | GI50 [1] [nM] |
| --- | --- | --- |
| CCS(=O)(=O)Nc1ccc(Oc2cccc(OCCN(C)c3ncc(C(=O)N[C@H]4C(C)(C)[C@H](Oc5ccc(C#N)c(Cl)c5)C4(C)C)cn3)c2)c(-c2cn(C)c(=O)c3[nH]ccc23)c1 [Compound I-1, N-((1r, 3r)-3-(3-chloro-4-cyanophenoxy)-2,2,4,4-tetramethylcyclobutyl)-2-((2-(3-(4-(ethylsulfonamido)-2-(6-methyl-7-oxo-6,7-dihydro-1H-pyrrolo[2,3-c]pyridin-4-yl)phenoxy)phenoxy)ethyl)(methyl)amino)pyrimidine-5-carboxamide] | < 50 | < 500 |
| CCS(=O)(=O)Nc1ccc(Oc2cccc(OCCOCCOCCOCCOCCN(C)c3ncc(C(=O)N[C@H]4C(C)(C)[C@H](Oc5ccc(C#N)c(Cl)c5)C4(C)C)cn3)c2)c(-c2cn(C)c(=O)c3[nH]ccc23)c1 [Compound I-3] | < 50 | < 500 |
| CCS(=O)(=O)Nc1ccc(Oc2cccc(OCCOCCOCCOCCOCCOC3CCN(c4ncc(C(=O)N[C@H]5C(C)(C)[C@H](Oc6ccc(C#N)c(Cl)c6)C5(C)C)cn4)CC3)c2)c(-c2cn(C)c(=O)c3[nH]ccc23)c1 [Compound I-8] | < 50 | – |
| CCS(=O)(=O)Nc1ccc(Oc2cccc(OCCOC3CCN(c4ccc(C(=O)N[C@H]5C(C)(C)[C@H](Oc6ccc(C#N)c(Cl)c6)C5(C)C)nn4)CC3)c2)c(-c2cn(C)c(=O)c3[nH]ccc23)c1 [Compound I-11] | < 50 | – |
| CCS(=O)(=O)Nc1ccc(Oc2cccc(OCCOCCOC3CCN(c4ncc(C(=O)N[C@H]5C(C)(C)[C@H](Oc6ccc(C#N)c(Cl)c6)C5(C)C)cn4)CC3)c2)c(-c2cn(C)c(=O)c3[nH]ccc23)c1 [Compound I-13] | < 50 | – |
| CCS(=O)(=O)Nc1ccc(Oc2cccc(COC3CCN(c4ncc(C(=O)N[C@H]5C(C)(C)[C@H](Oc6ccc(C#N)c(Cl)c6)C5(C)C)cn4)CC3)c2)c(-c2cn(C)c(=O)c3[nH]ccc23)c1 [Compound I-18, N-((1r, 3r)-3-(3-chloro-4-cyanophenoxy)-2,2,4,4-tetramethylcyclobutyl)-2-(4-((3-(4-(ethylsulfonamido)-2-(6-methyl-7-oxo-6,7-dihydro-1H-pyrrolo[2,3-c]pyridin-4-yl)phenoxy)benzyl)oxy)piperidin-1-yl)pyrimidine-5-carboxamide] | < 50 | < 500 |
| CCS(=O)(=O)Nc1ccc(Oc2cccc(CCOC3CCN(c4ncc(C(=O)N[C@H]5C(C)(C)[C@H](Oc6ccc(C#N)c(Cl)c6)C5(C)C)cn4)CC3)c2)c(-c2cn(C)c(=O)c3[nH]ccc23)c1 [Compound I-19] | < 50 | – |
| CCS(=O)(=O)Nc1ccc(Oc2cccc(N(C)C3CN(CC4CCN(c5ncc(C(=O)NC6C(C)(C)C(Oc7ccc(C#N)c(Cl)c7)C6(C)C)cn5)CC4)C3)c2)c(-c2cn(C)c(=O)c3[nH]ccc23)c1 (stereo not shown) [Compound I-39] | < 50 | – |
| CCS(=O)(=O)Nc1ccc(Oc2cccc(OCCOC3CCN(c4ncc(C(=O)N[C@H]5C(C)(C)[C@H](Oc6ccc(C#N)c(Cl)c6)C5(C)C)cn4)CC3)n2)c(-c2cn(C)c(=O)c3[nH]ccc23)c1 [Compound I-47, N-((1r, 3r)-3-(3-chloro-4-cyanophenoxy)-2,2,4,4-tetra-methylcyclobutyl)-2-(4-(2-((6-(4-(ethylsulfonamido)-2-(6-methyl-7-oxo-6,7-dihydro-1H-pyrrolo[2,3-c]pyridin-4-yl)phenoxy)pyridin-2-yl)oxy)ethoxy)piperidin-1-yl)pyrimidine-5-carboxamide] | < 50 | – |
| Cn1cc(-c2ccccc2Oc2cccc(OCCOC3CCN(c4ncc(C(=O)N[C@H]5C(C)(C)[C@H](Oc6ccc(C#N)c(Cl)c6)C5(C)C)cn4)CC3)c2)c2cc[nH]c2c1=O [Compound I-61, N-((1r, 3r)-3-(3-chloro-4-cyanophenoxy)-2,2,4,4-tetramethylcyclobutyl)-2-(4-(2-(3-(2-(6-methyl-7-oxo-6,7-dihydro-1H-pyrrolo[2,3-c]pyridin-4-yl)phenoxy)phenoxy)ethoxy)piperidin-1-yl)pyrimidine-5-carboxamide] | < 50 | – |
| CCS(=O)(=O)Nc1ccc(Oc2cccc(OCCOC3CCN(c4ccc(C(=O)N[C@H]5C(C)(C)[C@H](Oc6ccc(C#N)c(Cl)c6)C5(C)C)cn4)CC3)c2)c(-c2cn(C)c(=O)c3[nH]ccc23)c1 [Compound I-70, N-((1r, 3r)-3-(3-chloro-4-cyanophenoxy)-2,2,4,4-tetramethylcyclobutyl)-6-(4-(2-(3-(4-(ethylsulfonamido)-2-(6-methyl-7-oxo-6,7-dihydro-1H-pyrrolo[2,3-c]pyridin-4-yl)phenoxy)phenoxy)ethoxy)piperidin-1-yl)nicotinamide] | < 50 | < 500 |
| CCS(=O)(=O)Nc1ccc(Oc2cccc(OCCOC3CCN(c4cnc(C(=O)N[C@H]5C(C)(C)[C@H](Oc6ccc(C#N)c(Cl)c6)C5(C)C)cn4)CC3)c2)c(-c2cn(C)c(=O)c3[nH]ccc23)c1 [Compound I-71, N-((1r, 3r)-3-(3-chloro-4-cyanophenoxy)-2,2,4,4-tetramethylcyclobutyl)-5-(4-(2-(3-(4-(ethylsulfonamido)-2-(6-methyl-7-oxo-6,7-dihydro-1H-pyrrolo[2,3-c]pyridin-4-yl)phenoxy)phenoxy)ethoxy)piperidin-1-yl)pyrazine-2-carboxamide] | 500 to 2500 | < 500 |
| CCS(=O)(=O)Nc1ccc(Oc2cccc(NCCOC3CCN(c4ncc(C(=O)N[C@H]5C(C)(C)[C@H](Oc6ccc(C#N)c(Cl)c6)C5(C)C)cn4)CC3)c2)c(-c2cn(C)c(=O)c3[nH]ccc23)c1 [Compound I-84] | < 50 | – |
| Cn1cc(-c2cc(N)ccc2Oc2cccc(N3CC(N4CCN(c5ncc(C(=O)N[C@H]6C(C)(C)[C@H](Oc7ccc(C#N)c(Cl)c7)C6(C)C)cn5)CC4)C3)c2F)c2cc[nH]c2c1=O [Compound I-93] | < 50 | – |
| Cn1cc(-c2ccccc2Oc2cccc(OCCN3CCN(c4ncc(C(=O)N[C@H]5C(C)(C)[C@H](Oc6ccc(C#N)c(Cl)c6)C5(C)C)cn4)CC3)c2)c2cc[nH]c2c1=O [Compound I-98] | < 50 | – |
| Cn1cc(-c2cc(N)ccc2Oc2cccc(OCCN3CCN(c4ncc(C(=O)N[C@H]5C(C)(C)[C@H](Oc6ccc(C#N)c(Cl)c6)C5(C)C)cn4)CC3)c2F)c2cc[nH]c2c1=O [Compound I-100] | < 50 | – |
| Cn1cc(-c2cc(N)ccc2Oc2cccc(OCCC3CCN(c4ncc(C(=O)N[C@H]5C(C)(C)[C@H](Oc6ccc(C#N)c(Cl)c6)C5(C)C)cn4)CC3)c2)c2cc[nH]c2c1=O [Compound I-101] | < 50 | – |
| CCS(=O)(=O)N(C)c1ccc(Oc2cccc(N3CCN(C4CN(c5ncc(C(=O)N[C@H]6C(C)(C)[C@H](Oc7ccc(C#N)c(Cl)c7)C6(C)C)cn5)C4)CC3)c2)c(-c2cn(C)c(=O)c3[nH]ccc23)c1 [Compound I-118] | < 50 | – |
| CCS(=O)(=O)Nc1ccc(Oc2cccc(CCN3CC4CN(c5ncc(C(=O)N[C@H]6C(C)(C)[C@H](Oc7ccc(C#N)c(Cl)c7)C6(C)C)cn5)CC4C3)c2)c(-c2cn(C)c(=O)c3[nH]ccc23)c1 (stereo partly shown) [Compound I-119] | < 50 | – |
| CCS(=O)(=O)Nc1ccc(Oc2cccc(N3CC(N(C)C4CN(c5ncc(C(=O)N[C@H]6C(C)(C)[C@H](Oc7ccc(C#N)c(Cl)c7)C6(C)C)cn5)C4)C3)c2)c(-c2cn(C)c(=O)c3[nH]ccc23)c1 [Compound I-120] | < 50 | – |
| CCS(=O)(=O)Nc1ccc(Oc2cccc(N3CCN(C4CN(c5ncc(C(=O)N[C@H]6C(C)(C)[C@H](Oc7ccc(C#N)c(Cl)c7)C6(C)C)cn5)C4)CC3)c2)c(-c2cn(C)c(=O)c3[nH]ccc23)c1 [Compound I-126] | < 50 | – |
| CCS(=O)(=O)Nc1ccc(Oc2cccc(N3CC(CC4CN(c5ncc(C(=O)N[C@H]6C(C)(C)[C@H](Oc7ccc(C#N)c(Cl)c7)C6(C)C)cn5)C4)C3)c2)c(-c2cn(C)c(=O)c3[nH]ccc23)c1 [Compound I-158] | < 50 | – |
| CCS(=O)(=O)c1ccc(Oc2cccc(OCCOC3CCN(c4ccc(C(=O)N[C@H]5C(C)(C)[C@H](Oc6ccc(C#N)c(Cl)c6)C5(C)C)cn4)CC3)c2F)c(-c2cn(C)c(=O)c3[nH]ccc23)c1 [Compound I-185] | < 50 | – |

— patent publication US20250388605A1, “HETEROBIFUNCTIONAL COMPOUNDS AND METHODS OF TREATING DISEASE” (Halda Therapeutics OpCo, Inc., priority 2022, published 2025)
